How the values were obtained:
falcipain-2 (FP-2) = molecular target: T1, falcipain-2 (FP-2) (Plasmodium falciparum, UniProt Q8I6U4); format: biochemical; details: ratio 6d:12d:5, relative to 5 = 1
T1 sequence (Q8I6U4 244-484): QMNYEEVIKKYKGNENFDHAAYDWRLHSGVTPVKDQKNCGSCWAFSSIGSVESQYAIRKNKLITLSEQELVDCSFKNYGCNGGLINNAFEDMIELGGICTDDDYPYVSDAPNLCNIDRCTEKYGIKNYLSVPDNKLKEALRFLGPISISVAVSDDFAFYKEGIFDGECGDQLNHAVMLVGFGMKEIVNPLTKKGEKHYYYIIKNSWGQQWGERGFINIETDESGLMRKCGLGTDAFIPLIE

[1] = test system: P. falciparum trophozoites (food vacuole); details: parasites incubated with compound; cited from earlier work
[2] = test system: P. falciparum V1/S (chloroquine and pyrimethamine resistant); assay: microbe, parasite or virus in culture; format: cell-based; details: Plasmodium falciparum, read-out: IC50 VI/S
[3] = test system: P. falciparum W2 strain (chloroquine-resistant); assay: Antiplasmodial activity, growth of P. falciparum W2 strain; format: cell-based; details: Plasmodium falciparum, W2, read-out: IC50 W2
[4] = test system: P. falciparum D6 (chloroquine sensitive, mefloquine resistant); assay: Antiplasmodial activity, D6 strain; format: cell-based; details: Plasmodium falciparum, D6, read-out: IC50 D6
[5] = test system: P. falciparum FCR3 (atovaquone resistant); assay: Antiplasmodial activity, FCR3 strain; format: cell-based; details: Plasmodium falciparum, FCR3, read-out: IC50 FCR3
[6] = test system: P. falciparum 3D7 (chloroquine-sensitive); assay: Antiplasmodial activity, 3D7 strain; format: cell-based; details: Plasmodium falciparum, 3D7, read-out: IC50 3D7

Q: Which “IC50 ratio for FP-2 inhibition” value (falcipain-2 (FP-2)) does the source give for `CC(C)C[C@H](NC(=O)c1ccc(CO[C@H]2O[C@@H]3O[C@@]4(C)CC[C@H]5[C@H](C)CC[C@@H]([C@H]2C)[C@@]35OO4)cc1)C(=O)N[C@H](/C=C/S(=O)(=O)c1ccccc1)CCc1ccccc1` [Compound 6d] here?
A: 1650

Q: With `CC(C)C[C@H](NC(=O)[C@H]1O[C@@H]1C(=O)O)C(=O)NCCCCN=C(N)N` [Compound E64, E64] as the molecule, how does the “swollen food vacuole abnormality (block in hemoglobin hydrolysis)” value [1] read?
A: observed

Q: For `CC(C)C[C@H](NC(=O)N1CCOCC1)C(=O)N[C@H](/C=C/S(=O)(=O)c1ccccc1)CCc1ccccc1` [Compound 5, Mu-Leu-hPhe-VSPh], which “IC50 ratio for FP-2 inhibition” value (falcipain-2 (FP-2)) is on record?
A: 1

Q: Which IC50 [2] does the source give for `CCN(CC)CCCC(C)Nc1ccnc2cc(Cl)ccc12` (stereo not drawn) [Chloroquine] here?
A: 0.065 ± 0.0041 µM

Q: And the IC50 [3]?
A: 0.0781 ± 0.00691 µM

Q: What about the IC50 [4] of the same molecule?
A: 0.0169 ± 0.0021 µM

Q: And the IC50 [5]?
A: 0.0511 ± 0.0001 µM

Q: And the IC50 [6]?
A: 0.0116 ± 0.0011 µM

Q: Which “IC50 ratio for FP-2 inhibition” value (falcipain-2 (FP-2)) does the source give for `CC(C)C[C@H](NC(=O)OC(C)(C)C)C(=O)N[C@H](/C=C/S(=O)(=O)c1ccccc1)CCc1ccccc1` [Compound 12d] here?
A: 70

— article PMC2742655 (Bioorganic & medicinal chemistry letters, 2009)
